Patent publication US20150266836A1, “AROMATIC SULFIDE COMPOUNDS AND METHODS AND USE THEREOF” (The Regents of the University of California, priority 2014, published 2015)

Key:
[1] = system: MCF-7 breast cancer cell line; test: Proliferation-based anti-breast-cancer assay (CyQUANT Cell Proliferation Assay) against MCF-7 cells; details: for anticancer activity: inhibition of MCF-7 cell proliferation (result in words): compounds at 10 μM, compared to faslodex (ICI 182,780), FIG. 1; for EC50: Homo sapiens, MCF7, dose-response, 10 concentrations serially diluted from 120 μM, DMEM 2% FBS, normalized to DMSO vehicle, read-out: inhibition of MCF-7 cell proliferation, EC50
Procedure: Biological experiments were performed according to a modified procedure by Sigman et al.
MCF-7 cells were maintained in DMEM/high glucose supplemented with 10% FBS, L-glutamine, and penicillin/streptomycin. Experiments with MCF-7 cells were performed in DMEM/high glucose supplemented with 2% FBS, L-glutamine, and penicillin/streptomycin. MCF-10A cells were maintained in standard medium according to a modified recipe by Brugge et al. DMEM/F12 supplemented with 5% horse serum, 10 μg/mL of human insulin, 0.5 μg/mL of hydrocortisone, 10 ng/mL of EGF, 100 ng/mL of cholera toxin, and penicillin/streptomycin. Experiments with MCF-10A cells were performed in the same medium.
MCF-7 cells were centrifuged in 1×PBS for 20 min, and then the pellet was resuspended in DMEM supplemented with 10% FBS and filtered through a 40 μm nylon cell strainer (Fisher Scientific) to prevent clumping. The cells were seeded at 1500 cells per well in 96-well flat bottom plates suitable for fluorimetry, using 175 μL per well of DMEM supplemented with 10% FBS, and grown for 24 h in 5% CO2 at 37° C. The compounds (including the faslodex positive control) were dissolved in molecular biology grade DMSO to achieve a 3.5 mM stock solution and then sterile filtered through a 0.45 μm PVDF syringe filter unit (Fisher Scientific). The 3.5 mM stock solutions were subsequently diluted to a final concentration of 10 μM in DMEM supplemented with 2% FBS. Additionally, the corresponding DMSO vehicle control was diluted using the same medium.
After 24 h of growth, the cells were treated by replacing the normal media with fresh media containing the individual compounds or vehicle control (day 0). The outer rows of wells were not used to eliminate the possibility of effects due to evaporation of media. The cells were incubated with compound for 48 h and then treated again by aspirating the media and adding fresh media containing the compounds and controls (day 2). This procedure was repeated after an additional 48 h (day 4). After incubating a final 24 h, the 96-well plates were rinsed with 1×PBS, blotted dry, and then frozen at −78° C. overnight (day 5). On day 6, cell proliferation was measured using the fluorescence-based CyQUANT Cell Proliferation Assay Kit (Invitrogen).
Fluorimetry analysis was performed according to a modified procedure by McGowan et al. Cells were stained with 200 μL/well of 1× CyQUANT GR dye in cell lysis buffer for 10 min in the dark at room temperature and quantified by fluorimetry at 535 nm with 485 nm excitation. The fluorescence values were normalized to the DMSO vehicle control. The normalized values were plotted as an average±standard deviation of 6 wells per compound.
MCF-7 cells were centrifuged in 1×PBS for 20 min, and then the pellet was resuspended in DMEM supplemented with 10% FBS and filtered through a 40 μm nylon cell strainer (Fisher Scientific) to prevent clumping. The cells were seeded at 1500 cells per well in 96-well flat bottom plates suitable for fluorimetry, using 175 μL, per well of DMEM supplemented with 10% FBS, and grown for 24 h in 5% CO2 at 37° C. The compounds 19 and 25 were dissolved in molecular biology grade DMSO to achieve a 42 mM stock and then sterile filtered through a 0.45 μm PVDF syringe filter unit (Fisher Scientific). […]
Addition of compounds was performed as specified above for days 0-6. […] The fluorescence values were normalized to the DMSO vehicle controls corresponding to each concentration.

COc1cc(Sc2nnc(-c3ccccc3)o2)cc(OC)c1OC [Compound 27, 2-Phenyl-5-(3,4,5-trimethoxyphenylthio)-1,3,4-oxadiazole]
melting point: 142 °C
anticancer activity: inhibition of MCF-7 cell proliferation (result in words) [1]: performed poorly

c1ccc(Sc2nc3ccccc3o2)cc1 [Compound 16, 2-Phenylthiobenzoxazole]
anticancer activity: inhibition of MCF-7 cell proliferation (result in words) [1]: inactive

c1ccc(Sc2nnc(-c3ccccc3)o2)cc1 [Compound 19, 2-Phenyl-5-(phenylthio)-1,3,4-oxadiazole]
EC50 [1]: 7.9 µM

COc1cc(Sc2nnnn2-c2ccccc2)cc(OC)c1OC [Compound 26, 1-Phenyl-5-(3,4,5-trimethoxyphenylthio)-1H-tetrazole]
melting point: 110 to 111 °C

COc1cc(Sc2ncccn2)cc(OC)c1OC [Compound 24, 2-(3,4,5-Trimethoxyphenylthio)pyrimidine]
melting point: 103 to 104 °C

Fc1c(F)c(F)c(Sc2ccccc2)c(F)c1F [Compound 11, (Perfluorophenyl)(phenyl)sulfane]
melting point: 45 to 48 °C

c1ccc(Sc2nnnn2-c2ccccc2)cc1 [Compound 18, 1-Phenyl-5-(phenylthio)-1H-tetrazole]
melting point: 129 to 133 °C

COc1cc(Sc2nc3ccccc3o2)cc(OC)c1OC [Compound 25, 2-(3,4,5-Trimethoxyphenylthio)benzoxazole]
melting point: 129 to 130 °C
EC50 [1]: 4.5 µM

c1ccc(Sc2nc3ccccc3s2)cc1 [Compound 15, 2-Phenylthiobenzothiazole]
anticancer activity: inhibition of MCF-7 cell proliferation (result in words) [1]: inactive

N#Cc1cccc(Sc2ncccn2)c1 [Compound 23, 3-(Pyrimidin-2-ylthio)benzonitrile]
melting point: 71 to 73 °C
